We go through 65 compounds from PubChem BioAssay AID1645848.

In brackets after ≈: the same amount, converted by molar mass.

The conditions of this series: buffer; pH 7.4; 6.0 h; 150.0 µM.
What is called kinetic solubility is the concentration staying in solution when a stock, usually in DMSO, is diluted into the medium. The compound `Cc1ccc(-c2cc(C(=O)NCc3cnn(C)c3C)c3cc(Br)ccc3n2)cc1` displayed a kinetic solubility below 1 µg/mL.
Under `CCOC(=O)CCNc1cc(N2CCc3ccccc3CC2)nc(-c2ccccn2)n1` stands 8.45 µg/mL (≈ 20.2 µM); under `O=C1c2ccccc2-n2c1nc1ccccc1c2=O`, 8.45 µg/mL (≈ 34 µM).
`CCCCCn1c(CCCNC(=O)c2ccccc2OC)nc2ccccc21` had a solubility (kinetic) of 32.3 µg/mL (≈ 85.2 µM). Compared with the last compound, the solubility kinetic is about 3.8-fold higher.
As for `NC(=O)C1CCN(c2ncc(Br)s2)CC1`, the figure is 32.3 µg/mL (≈ 111 µM).
As for `CC(C)c1ccccc1-c1ncc(F)c(NCc2ccc(-n3ccnn3)cc2)n1`, the figure is 2.13 µg/mL (≈ 5.49 µM); as for `Cc1ccc2[nH]c(-c3ccccc3)cc(=O)c2c1`, 3.41 µg/mL (≈ 14.5 µM); as for `CC(C)n1cc(-c2ccc(Oc3ccccc3)cc2)c2c(N)ncnc21`, below 1 µg/mL.
`CC1(C)CC(=O)C2=C(C1)NC(Nc1nc3ccccc3o1)=NC2c1ccccc1Cl` (stereo not given) displayed a kinetic solubility below 1 µg/mL.
In turn, `Cc1ccc(C(=O)N2CCc3c(nc4cc(-c5ccccc5)[nH]n4c3=O)C2)cn1` showed a kinetic solubility of 8.67 µg/mL (≈ 22.5 µM).
Under `Brc1ccc(-c2csc(N3CCNCC3)n2)cc1` stands 6.59 µg/mL (≈ 20.3 µM); under `Cc1noc(C)c1C(=O)N1CCC2(CCCN(C(c3ccccc3)c3ccccc3)C2)CC1`, 1.15 µg/mL (≈ 2.6 µM).
Compound `O=C(Nc1cc(C(F)(F)F)ccc1N1CCOCC1)c1n[nH]c(=O)c2ccccc12` yielded a kinetic solubility below 1 µg/mL.
Under `CCCCCOc1ccccc1/C(=C\SC)n1ccnc1` stands below 1 µg/mL.
Take `Cc1ccc(/C=C/c2nc3ccccc3n2S(=O)(=O)c2ccc(Br)cc2)cc1`: the solubility (kinetic) is 0.184 µg/mL (≈ 0.406 µM).
The compound `Cc1cccc(NC(=S)N2CCN(c3cccc(C(F)(F)F)c3)CC2)c1` registered a solubility (kinetic) of 1.59 µg/mL (≈ 4.18 µM). Against the preceding compound, the solubility kinetic is about 8.6-fold higher.
As for `Cc1ccc(-c2cc(C(=O)Nc3cccc(S(N)(=O)=O)c3)c3ccccc3n2)cc1C`, the kinetic solubility is below 1 µg/mL.
For `Cc1ccc(S(=O)(=O)Nc2cc(Cl)c(Cl)cc2C(=O)Nc2nc(-c3ccccc3)cs2)cc1`, the kinetic solubility is below 1 µg/mL.
Under `O=C(Nc1ncc(Cc2ccc(C(F)(F)F)cc2)s1)c1cnc(-c2ccccc2)[nH]1` stands below 1 µg/mL; under `O=S(=O)(Nc1nccs1)c1ccc(NCc2cc(F)ccc2O)cc1`, above 56 µg/mL; under `COc1cccc(CNc2ccc(S(=O)(=O)Nc3cnc4ccccc4c3)cc2)c1O`, below 1 µg/mL.
Under `CCS(=O)(=O)c1nc(-c2ccc(Cl)cc2)cc(C(F)(F)F)n1` stands 8.53 µg/mL (≈ 24.3 µM); under `Cn1c(=O)cc(C(=O)NC2CCCc3c2[nH]c2c(Cl)cccc32)c2ccccc21` (stereo not given), below 1 µg/mL; under `Cc1cc(C)c(C(=O)Nc2cccc([S+](=O)([O-])N3CCCC3)c2)[nH]1`, 11.5 µg/mL (≈ 33.1 µM).
With `CNc1oc(-c2cccc3ccccc23)nc1C(=O)OC`, the kinetic solubility is below 1 µg/mL.
Under `CC(=O)c1ccc(N2CCN(S(=O)(=O)c3ccc4c(c3)CC(=O)N4)CC2)cc1` stands 2.85 µg/mL (≈ 7.13 µM).
As for `Nc1c(C(=O)Nc2ccc(F)cc2)sc2nc(-c3cccs3)cc(C(F)(F)F)c12`, the figure is below 1 µg/mL; as for `Cc1cccc(NCc2ccc(O)c3ncccc23)c1`, below 1 µg/mL.
As for `Clc1ccccc1Nc1nc(-c2ccncc2)nc2ccccc12`, the figure is below 1 µg/mL; as for `O=C1Nc2ccccc2/C1=C/c1cccc(C(=O)O)c1`, above 39 µg/mL; as for `O=C(NCCCNc1nc(Nc2cccc(CN3CCOCC3)c2)ncc1C1CC1)C1CCC1`, above 69 µg/mL.
`COc1ccc2[nH]c(=O)c(-c3noc(-c4ccc(F)cc4)n3)cc2c1` registered a solubility (kinetic) below 1 µg/mL.
As for `O=C(CCc1ccccc1)NC(c1cccs1)c1cc(Cl)c2cccnc2c1O` (stereo not given), the figure is below 1 µg/mL; as for `Cc1nn(CCc2nc(-c3ccccc3F)cs2)c2[nH]c(=O)cc(C(F)(F)F)c12`, below 1 µg/mL.
Under `COc1cc(NS(=O)(=O)c2ccc(C)cc2)cc(C(=O)Nc2nc(-c3ccccc3)cs2)c1` stands below 1 µg/mL; under `CC(C)(C)n1nc(-c2ccc(Cl)cc2)c2c(N)ncnc21`, below 1 µg/mL.
Under `C[C@@H]1C(=O)O[C@H]2[C@H]1CC[C@@]1(C)Cc3sc(NS(=O)(=O)Cc4ccccc4)nc3[C@@H](C)[C@H]21` stands above 68 µg/mL.
In the case of `N#Cc1c(NC(=O)c2cccc3ccccc23)sc2c1CCCC2`, the solubility (kinetic) was below 1 µg/mL.
As for `CCCc1ccc(C(=O)NC(=O)c2ccccc2O)cc1`, the figure is 1.6 µg/mL (≈ 5.65 µM); as for `O=C(Nc1ncc(Cc2ccc(C(F)(F)F)cc2)s1)c1ccc(-c2ccccc2[N+](=O)[O-])o1`, below 1 µg/mL.
`COC(=O)c1cccc(NC(=O)c2cnc(-c3ccc(F)cc3)nc2-c2ccncc2)c1` returned a kinetic solubility below 1 µg/mL.
In the case of `COc1ccc(-n2c(C)c(C(C)=O)c3ccccc32)cc1`, the solubility (kinetic) was below 1 µg/mL.
With `COc1ccc(CN2CCc3c(c(=O)n4ncc(C(=O)N5CCN(c6ccccc6OC)CC5)c4n3C)C2)cc1`, the kinetic solubility worked out at 14.2 µg/mL (≈ 26.1 µM).
Under `Cc1ccccc1C(=O)N1CCc2cc(-c3nc(NC(=O)Cc4ccccc4)sc3C)ccc21` stands below 1 µg/mL; under `CCOc1ccc(CCNC(=O)c2cc3ccncc3n2Cc2cccc(C)c2)cc1OCC`, 55.7 µg/mL (≈ 122 µM); under `CNc1ccc(Br)cc(C(=O)/C=C/c2ccc(OC)cc2OC)c1=O`, 1.94 µg/mL (≈ 4.8 µM).
As for `Cc1ccc(S(=O)(=O)Nc2ccccc2C(=O)Nc2ccc(-c3ccccc3)nc2)cc1`, the figure is below 1 µg/mL.
As for `CCn1cc(C(=O)N2CCN(c3cccc(Cl)c3)CC2)c2cc(OC)c(OC)cc2c1=O`, the figure is 3.32 µg/mL (≈ 7.27 µM); as for `O=C(c1nc(-c2cccnc2)c2ccccn12)N1CCN(c2ncccn2)CC1`, 9.57 µg/mL (≈ 24.8 µM).
`CCOc1ccccc1CNS(=O)(=O)c1ccc(-c2cnc(C3CC3)o2)cc1`: the kinetic solubility is below 1 µg/mL.
As for `Cc1ccc(S(=O)(=O)Nc2ccccc2C(=O)Nc2cnc(-c3ccccc3)cn2)cc1`, the figure is below 1 µg/mL; as for `O=C1C(SCCO)=C(SCCO)C(=O)c2ccccc21`, above 31 µg/mL.
`CNc1cc(-c2nc(Nc3ccc(F)c(F)c3)c3ccccc3n2)ccn1` registered a kinetic solubility below 1 µg/mL.
As for `COc1cc2nc(N3CCCC3)nc(NCCCCCN3CCCC3)c2cc1OC`, the figure is above 61 µg/mL.
Under `COc1ccc(-n2nc(C)c([C@@H]3C=C[C@@H](NCc4ccc(N(C)C)cc4)C3)c2C)cc1` stands 50.3 µg/mL (≈ 121 µM).
As for `COCCNC(=O)[C@H]1C[C@H](Oc2ccccc2)CN1Cc1ccc2[nH]ccc2c1`, the figure is 17.1 µg/mL (≈ 43.5 µM).
Regarding `COc1ccccc1CNc1ccc(N2CCCCC2)cc1`, the kinetic solubility turned out to be 12.9 µg/mL (≈ 43.5 µM).
As for `Cc1ccc(S(=O)(=O)NCCC(=O)Nc2nc(-c3ccccc3)cs2)cc1`, the figure is below 1 µg/mL.
On to `Nc1ncc(S(=O)(=O)N2CCOCC2)s1`, for which the solubility (kinetic) is above 37 µg/mL.
Turning to `CNc1nc2c(s1)C(c1ccc(Cl)cc1)CC(=O)N2` (stereo not given), the solubility (kinetic) was 10.8 µg/mL (≈ 36.6 µM).
As to `Cc1cn2nc(-c3nc(C4CCCN(C(=O)c5ccccc5)C4)no3)cc2c(=O)[nH]1` (stereo not given), the solubility (kinetic) is 27.5 µg/mL (≈ 68 µM).
In the case of `Cc1ccc([S+](=O)([O-])n2cc(-c3ccc(-c4ccccc4)cc3)c3ccccc32)cc1`, the solubility (kinetic) is below 1 µg/mL.
Under `O=C(Cc1ccc(Cl)c(Cl)c1)Nc1ccc(S(=O)(=O)Nc2nncs2)cc1` stands above 65 µg/mL.
As for `Nc1ccccc1OCCn1c(CCNC(=O)C2CCCCC2)nc2ccccc21`, the figure is 44.5 µg/mL (≈ 109 µM); as for `Cc1cc(F)ccc1-c1nc(NCCN=C(N)NC#N)nc2c1ccc(=O)n2-c1c(F)cccc1F`, 39.5 µg/mL (≈ 80.2 µM).
